Consider 51 compounds from ChEMBL document CHEMBL3779887, “Robenidine Analogues as Gram-Positive Antibacterial Agents” (J Med Chem, 2016).

Holding throughout (assay type): functional
One experiment concerns Escherichia coli. Nature of the experiment: Antibacterial activity against Escherichia coli ATCC 25922 after 20 to 24 hrs.
For a further experiment, the system named is Enterococcus. Nature of the experiment: Antibacterial activity against vancomycin-resistant Enterococcus after 20 to 24 hrs.
The next experiment deals with Pseudomonas aeruginosa. Nature of the experiment: Antibacterial activity against Pseudomonas aeruginosa ATCC 27853 after 20 to 24 hrs.
The next experiment deals with Staphylococcus aureus. Nature of the experiment: Antibacterial activity against methicillin-resistant Staphylococcus aureus after 20 to 24 hrs.

≈ marks a conversion by molar mass, not a printed value. Calls of active or inactive are those of the source. The calls are words filed in the database; no cut-off is given here.

As usually defined, the MIC is the least concentration at which growth counts as inhibited. As for `N=C(N/N=C/c1ccccc1Cl)N/N=C/c1ccccc1Cl`, the MIC against Escherichia coli, against Enterococcus, against Pseudomonas aeruginosa and against Staphylococcus aureus was more than 400 µM each time.
Regarding `N=C(N/N=C/c1ccc(Cl)cc1O)N/N=C/c1ccc(Cl)cc1O`, the minimal inhibitory concentration (MIC) is more than 400 µM with Escherichia coli, 45 µM (≈ 16.5 µg/mL) with Enterococcus, more than 400 µM in the experiment with Pseudomonas aeruginosa and 80 µM (≈ 29.3 µg/mL) with Staphylococcus aureus.
Take `COc1ccccc1/C=N/NC(=N)N/N=C/c1ccccc1OC`: the minimal inhibitory concentration (MIC) is more than 400 µM with Escherichia coli, 358 µM (≈ 116 µg/mL) against Enterococcus, more than 400 µM in the experiment with Pseudomonas aeruginosa and more than 400 µM against Staphylococcus aureus.
On to `N=C(N/N=C/c1ccc(/C=C/C(=O)O)cc1)N/N=C/c1ccc(/C=C/C(=O)O)cc1`, for which the MIC against Escherichia coli, against Enterococcus, against Pseudomonas aeruginosa and against Staphylococcus aureus was more than 400 µM each time.
As to `N=C(N/N=C/c1cccc(C(=O)O)c1)N/N=C/c1cccc(C(=O)O)c1`, the MIC in the experiment on Escherichia coli, against Enterococcus, with Pseudomonas aeruginosa and in the experiment on Staphylococcus aureus was more than 400 µM each time.
For `N=C(N/N=C/C=C/c1ccccc1)N/N=C/C=C/c1ccccc1`, the MIC against Enterococcus and against Staphylococcus aureus was more than 400 µM in each case.
For `COc1cc(/C=N/NC(=N)N/N=C/c2cc(O)c(O)c(OC)c2)cc(O)c1O`, the minimal inhibitory concentration (MIC) against Escherichia coli, against Enterococcus, against Pseudomonas aeruginosa and against Staphylococcus aureus was more than 400 µM in each case.
As for `N=C(N/N=C/c1ccccc1)N/N=C/c1ccccc1`, the MIC with Escherichia coli, against Enterococcus, in the experiment with Pseudomonas aeruginosa and against Staphylococcus aureus was more than 400 µM in each case.
As for `N=C(N/N=C/c1ccc(O)c(O)c1)N/N=C/c1ccc(O)c(O)c1`, the MIC in the experiment with Escherichia coli, in the experiment on Enterococcus, in the experiment on Pseudomonas aeruginosa and in the experiment with Staphylococcus aureus was more than 400 µM in each case.
Regarding `N=C(N/N=C/c1cc(O)c(O)c(O)c1)N/N=C/c1cc(O)c(O)c(O)c1`, the minimum inhibitory concentration (MIC) was more than 400 µM in the experiment on Escherichia coli, more than 400 µM in the experiment with Enterococcus, 322 µM (≈ 116 µg/mL) against Pseudomonas aeruginosa and 161 µM (≈ 58.2 µg/mL) against Staphylococcus aureus.
For the compound `C/C(=N\NC(=N)N/N=C(\C)c1ccc(C(F)(F)F)cc1)c1ccc(C(F)(F)F)cc1`, in the experiment on Escherichia coli, the outcome was inactive. Also, the MIC in the experiment with Enterococcus was 17.2 µM (≈ 7.39 µg/mL); in the experiment on Staphylococcus aureus, more than 400 µM.
For the compound `C/C(=N\NC(=N)N/N=C(\C)c1ccccc1)c1ccccc1`, the result with Escherichia coli was inactive. The minimum inhibitory concentration (MIC) in the experiment on Enterococcus came out at 49 µM (≈ 14.4 µg/mL); in the experiment on Staphylococcus aureus, 18.2 µM (≈ 5.34 µg/mL).
`N=C(N/N=C/c1cc(Cl)cc(Cl)c1)N/N=C/c1cc(Cl)cc(Cl)c1`: the minimum inhibitory concentration (MIC) with Escherichia coli, in the experiment with Enterococcus, against Pseudomonas aeruginosa and against Staphylococcus aureus was more than 400 µM in each case.
For `N=C(N/N=C/c1ccc(Br)cc1)N/N=C/c1ccc(Br)cc1`, the minimal inhibitory concentration (MIC) against Escherichia coli, with Enterococcus, in the experiment with Pseudomonas aeruginosa and in the experiment on Staphylococcus aureus was more than 400 µM in each case.
Regarding `N=C(N/N=C/c1ccc(-c2ccccc2)cc1)N/N=C/c1ccc(-c2ccccc2)cc1`, the minimum inhibitory concentration (MIC) in the experiment on Escherichia coli is more than 400 µM; against Enterococcus, 106 µM (≈ 44.3 µg/mL); in the experiment on Pseudomonas aeruginosa, more than 400 µM; in the experiment on Staphylococcus aureus, 282 µM (≈ 118 µg/mL).
On to `N=C(N/N=C/c1ccncc1)N/N=C/c1ccncc1`, for which the MIC in the experiment with Enterococcus and against Staphylococcus aureus was more than 400 µM throughout.
In the case of `N=C(N/N=C/c1cnc2ccccc2c1)N/N=C/c1cnc2ccccc2c1`, the result with Enterococcus and with Staphylococcus aureus was inactive.
`COc1ccc(/C=N/NC(=N)N/N=C/c2ccc(OC)cc2)cc1`: the MIC in the experiment on Escherichia coli, against Enterococcus, with Pseudomonas aeruginosa and with Staphylococcus aureus was more than 400 µM throughout.
With `N=C(N/N=C/C1CCCCC1)N/N=C/C1CCCCC1`, the MIC was found to be 306 µM (≈ 84.9 µg/mL) against Enterococcus and 408 µM (≈ 113 µg/mL) against Staphylococcus aureus.
In the case of `C#Cc1ccc(/C=N/NC(=N)N/N=C/c2ccc(C#C)cc2)cc1`, the minimum inhibitory concentration (MIC) with Escherichia coli was more than 400 µM; with Enterococcus, 17.2 µM (≈ 5.39 µg/mL); against Pseudomonas aeruginosa, more than 400 µM; with Staphylococcus aureus it was more than 400 µM.
As for `N=C(N/N=C/c1ccccc1F)N/N=C/c1ccccc1F`, the MIC against Escherichia coli, with Enterococcus, against Pseudomonas aeruginosa and in the experiment with Staphylococcus aureus was more than 400 µM in each case.
On to `N=C(N/N=C/c1cnccc1Cl)N/N=C/c1cnccc1Cl`, for which the values for the MIC with Enterococcus and with Staphylococcus aureus were 86 µM (≈ 28.9 µg/mL) and 172 µM (≈ 57.8 µg/mL), respectively.
In the case of `N=C(N/N=C/c1ccc(C(F)(F)F)cc1)N/N=C/c1ccc(C(F)(F)F)cc1`, the MIC in the experiment on Escherichia coli was more than 400 µM; against Enterococcus, 11.4 µM (≈ 4.57 µg/mL); against Pseudomonas aeruginosa, more than 400 µM; in the experiment with Staphylococcus aureus it was 36.5 µM (≈ 14.6 µg/mL).
On to `CC/C(=N\NC(=N)N/N=C(\CC)c1ccc(Cl)cc1)c1ccc(Cl)cc1`, for which, in the experiment on Escherichia coli, the result was inactive. The minimal inhibitory concentration (MIC) amounted to 18.7 µM (≈ 7.3 µg/mL) in the experiment with Enterococcus and 56 µM (≈ 21.9 µg/mL) against Staphylococcus aureus.
For the compound `N=C(N/N=C/c1ccc(Cl)cc1N)N/N=C/c1ccc(Cl)cc1N`, the MIC with Escherichia coli was more than 400 µM; in the experiment with Enterococcus, 6.3 µM (≈ 2.29 µg/mL); with Pseudomonas aeruginosa, more than 400 µM; with Staphylococcus aureus it was 5 µM (≈ 1.82 µg/mL).
As for `CN(C)c1ccc(/C=N/NC(=N)N/N=C/c2ccc(N(C)C)cc2O)c(O)c1`, the minimal inhibitory concentration (MIC) was more than 400 µM in the experiment with Escherichia coli, 76 µM (≈ 29.1 µg/mL) in the experiment on Enterococcus, more than 400 µM with Pseudomonas aeruginosa and 229 µM (≈ 87.8 µg/mL) against Staphylococcus aureus.
As for `CCCC/C(=N\NC(=N)N/N=C(\CCCC)c1ccc(Cl)cc1)c1ccc(Cl)cc1`, the result in the experiment on Escherichia coli was inactive. The MIC in the experiment on Enterococcus and against Staphylococcus aureus was more than 400 µM in each case.
For `COc1cc(Br)c(/C=N/NC(=N)N/N=C/c2cc(OC)c(OC)cc2Br)cc1OC`, the MIC in the experiment with Escherichia coli, in the experiment on Enterococcus, with Pseudomonas aeruginosa and with Staphylococcus aureus was more than 400 µM throughout.
Consider `N=C(N/N=C/c1cccc(O)c1O)N/N=C/c1cccc(O)c1O`, for which the MIC was more than 400 µM with Escherichia coli, 262 µM (≈ 86.3 µg/mL) against Enterococcus, more than 400 µM in the experiment on Pseudomonas aeruginosa and 88 µM (≈ 29 µg/mL) with Staphylococcus aureus.
On to `COc1cc(/C=N/NC(=N)N/N=C/c2cc(Br)c(OC)c(OC)c2)cc(Br)c1OC`, for which the MIC against Escherichia coli, in the experiment on Enterococcus, in the experiment on Pseudomonas aeruginosa and in the experiment with Staphylococcus aureus was more than 400 µM each time.
For the compound `N=C(N/N=C/c1ccc(O)c(O)c1O)N/N=C/c1ccc(O)c(O)c1O`, the minimal inhibitory concentration (MIC) in the experiment on Escherichia coli was more than 400 µM; with Enterococcus, 161 µM (≈ 58.2 µg/mL); against Pseudomonas aeruginosa, more than 400 µM; against Staphylococcus aureus, 161 µM (≈ 58.2 µg/mL).
`N=C(N/N=C/c1c(Cl)cccc1Cl)N/N=C/c1c(Cl)cccc1Cl`: the minimum inhibitory concentration (MIC) against Escherichia coli, in the experiment with Enterococcus, with Pseudomonas aeruginosa and with Staphylococcus aureus was more than 400 µM each time.
With `N=C(N/N=C/c1cccnc1N)N/N=C/c1cccnc1N`, the MIC in the experiment on Enterococcus and with Staphylococcus aureus was more than 400 µM throughout.
With `C/C(=N\NC(=N)N/N=C(\C)c1ccc(N2CCNCC2)cc1)c1ccc(N2CCNCC2)cc1`, the result in the experiment with Escherichia coli was inactive. The MIC against Enterococcus stood at 278 µM (≈ 128 µg/mL); with Staphylococcus aureus, 243 µM (≈ 112 µg/mL).
For `N=C(N/N=C/c1cnc2ccccc2n1)N/N=C/c1cnc2ccccc2n1`, the outcome with Enterococcus and in the experiment with Staphylococcus aureus was inactive.
For the compound `N=C(N/N=C/c1cc(O)c(O)cc1O)N/N=C/c1cc(O)c(O)cc1O`, the MIC was more than 400 µM in the experiment on Escherichia coli, 322 µM (≈ 116 µg/mL) in the experiment with Enterococcus, more than 400 µM against Pseudomonas aeruginosa and 161 µM (≈ 58.2 µg/mL) in the experiment with Staphylococcus aureus.
For the compound `COc1ccc(/C=C/C=N/NC(=N)N/N=C/C=C/c2ccc(OC)cc2)cc1`, the minimum inhibitory concentration (MIC) in the experiment on Enterococcus is more than 400 µM; against Staphylococcus aureus, 309 µM (≈ 117 µg/mL).
Turning to `N=C(N/N=C/c1ccc(Cl)cc1F)N/N=C/c1ccc(Cl)cc1F`, the MIC is more than 400 µM with Escherichia coli, 7.4 µM (≈ 2.74 µg/mL) in the experiment with Enterococcus, more than 400 µM against Pseudomonas aeruginosa and 6.1 µM (≈ 2.26 µg/mL) in the experiment on Staphylococcus aureus.
In the case of `Cc1ccc(/C=N/NC(=N)N/N=C/c2ccc(C)cc2)cc1`, the MIC against Escherichia coli is more than 400 µM; in the experiment on Enterococcus, 12.1 µM (≈ 3.55 µg/mL); in the experiment with Pseudomonas aeruginosa, more than 400 µM; in the experiment with Staphylococcus aureus, 9.1 µM (≈ 2.67 µg/mL).
For the compound `COc1cccc(/C=N/NC(=N)N/N=C/c2cccc(OC)c2)c1`, the MIC is more than 400 µM in the experiment with Escherichia coli, 88 µM (≈ 28.6 µg/mL) in the experiment on Enterococcus, more than 400 µM in the experiment with Pseudomonas aeruginosa and 88 µM (≈ 28.6 µg/mL) against Staphylococcus aureus.
In the case of `N=C(N/N=C/C(=C/c1ccccc1)c1ccccc1)N/N=C/C(=C/c1ccccc1)c1ccccc1`, the MIC is more than 400 µM in the experiment with Enterococcus and 61 µM (≈ 28.6 µg/mL) in the experiment with Staphylococcus aureus.
As for `Cc1ccccc1/C=N/NC(=N)N/N=C/c1ccccc1C`, the minimum inhibitory concentration (MIC) against Escherichia coli is more than 400 µM; in the experiment with Enterococcus it was 61 µM (≈ 17.9 µg/mL); against Pseudomonas aeruginosa, more than 400 µM; against Staphylococcus aureus, 121 µM (≈ 35.5 µg/mL).
On to `CCC/C(=N\NC(=N)N/N=C(\CCC)c1ccc(Cl)cc1)c1ccc(Cl)cc1`, for which, in the experiment with Escherichia coli, the outcome was inactive. For the same compound, the minimal inhibitory concentration (MIC) against Enterococcus and against Staphylococcus aureus was more than 400 µM in each case.
Turning to `N=C(N/N=C/c1ccc2ccccc2c1)N/N=C/c1ccc2ccccc2c1`, the figures for the MIC with Enterococcus and in the experiment with Staphylococcus aureus were 159 µM (≈ 58.1 µg/mL) and 239 µM (≈ 87.3 µg/mL), respectively.
As for `C/C(=N\NC(=N)N/N=C(\C)c1ccc(C(C)(C)C)cc1)c1ccc(C(C)(C)C)cc1`, the outcome in the experiment on Escherichia coli was inactive. For the same compound, the MIC in the experiment with Enterococcus worked out at 36.2 µM (≈ 14.7 µg/mL); in the experiment with Staphylococcus aureus, 4.5 µM (≈ 1.83 µg/mL).
For `N=C(N/N=C/c1csc2ccc(Cl)cc12)N/N=C/c1csc2ccc(Cl)cc12`, the results for the MIC in the experiment on Enterococcus and against Staphylococcus aureus were 33.1 µM (≈ 14.8 µg/mL) and more than 400 µM, respectively.
Take `C/C(=N\NC(=N)N/N=C(\C)c1ccc(C)cc1)c1ccc(C)cc1`: the result with Escherichia coli was inactive. In addition, the MIC worked out at 8.4 µM (≈ 2.7 µg/mL) with Enterococcus and 11.2 µM (≈ 3.6 µg/mL) in the experiment with Staphylococcus aureus.
Take `C/C(=N\NC(=N)N/N=C(\C)c1ccc(Br)cc1)c1ccc(Br)cc1`: the outcome in the experiment with Escherichia coli was inactive. The figures for the MIC in the experiment on Enterococcus and against Staphylococcus aureus were 24.6 µM (≈ 11.1 µg/mL) and 16.4 µM (≈ 7.4 µg/mL), respectively.
Consider `N=C(N/N=C(\C(=O)O)c1ccccc1)N/N=C(\C(=O)O)c1ccccc1`, for which the result in the experiment with Escherichia coli was inactive. Besides, the minimum inhibitory concentration (MIC) against Enterococcus and with Staphylococcus aureus was more than 400 µM throughout.
With `N=C(N/N=C(\CN)c1ccccc1)N/N=C(\CN)c1ccccc1`, the outcome in the experiment on Escherichia coli was inactive. Moreover, the minimal inhibitory concentration (MIC) against Enterococcus and against Staphylococcus aureus was more than 400 µM each time.
Consider `N=C(N/N=C/c1ccc2[nH]ccc2c1)N/N=C/c1ccc2[nH]ccc2c1`, for which the minimal inhibitory concentration (MIC) turned out to be 42 µM (≈ 14.4 µg/mL) against Enterococcus and 31.6 µM (≈ 10.9 µg/mL) against Staphylococcus aureus.
